This is an account of results in BindingDB's records for doi:10.1016/S0960-894X(01)80395-4 (1994).

pIC50: −log10 of the molar value.

For this experiment, the target named is Arachidonate 5-lipoxygenase (Cavia porcellus). The experiment is described as follows: Inhibitory activity against 5-lipoxygenase in guinea pig leukocytes was determined.

By pIC50 is commonly meant the negative decadic logarithm of the IC50, by convention in mol/L. Higher therefore signals a small IC50. Turning to `Cc1ccnc(N2CCN(CCC3Cn4c(-c5cc(C)c(O)c(C)c5)c(C)c5cc(O)cc(c54)O3)CC2)c1` (configuration not stated) [5-(4-Hydroxy-3,5-dimethyl-phenyl)-6-methyl-2-{2-[4-(4-methyl-pyridin-2-yl)-piperazin-1-yl]-ethyl}-2,3-dihydro-[1,4]oxazino[2,3,4-hi]indol-8-ol], the pIC50 is 6.74. Regarding `COc1ccc2[nH]c(-c3cc(C)c(O)c(C)c3)c(C)c2c1` [TZI-41127], the pIC50 was 6.62.
